Test results as given in ChEMBL document CHEMBL5252563, “Structure-activity relationship studies of anti-bunyaviral cap-dependent endonuclease inhibitors” (Bioorg Med Chem Lett, 2023).

Assays:
Junin virus [1] = experiment: Antiviral activity against Junin virus; assay type: functional, organism-based; conditions: Mammarenavirus juninense
[2] = test system: Mammarenavirus choriomeningitidis; experiment: Antiviral activity against Lymphocytic choriomeningitis virus; assay type: functional, organism-based
[3] = Metabolic stability in rat liver microsomes; assay type: ADME, Microsome
Junin virus [4] = experiment: Potency index, ratio of ribavirin EC50 to test compound EC50 for antiviral activity against Junin virus; assay type: functional, Mammarenavirus juninense
[5] = Metabolic stability in human liver microsomes; assay type: ADME, Microsome
[6] = test system: Mammarenavirus choriomeningitidis; experiment: Potency index, ratio of ribavirin EC50 to test compound EC50 for antiviral activity against Lymphocytic choriomeningitis virus; assay type: functional
[7] = AUC in rat at 1 umol/kg, iv administered as cassette dose; assay type: ADME, organism-based; set-up: dose 1 µmol/kg, route iv; conditions: in vivo
[8] = Elimination half-life in rat at 2 umol/kg, po or 1 umol/kg, iv administered as cassette dose; assay type: ADME, organism-based; conditions: in vivo, dose 2 µmol/kg, read-out: LambdaZ (converted)
[9] = Unbound fraction in rat serum at 2 umol/kg, po or 1 umol/kg, iv administered as cassette dose; assay type: ADME, organism-based; conditions: at 2 µmol/kg
[10] = Bioavailability in rat at 2 umol/kg, po or 1 umol/kg, iv administered as cassette dose; assay type: ADME, organism-based; conditions: in vivo, at 2 µmol/kg

Structure (SMILES): COCCN1CN(C2c3ccccc3CCc3ccccc32)n2cc(C(=O)O)c(=O)c(O)c2C1=O
- EC50 (Junin virus [1]): 5 nM
- EC50 [2]: 5.3 nM

Structure (SMILES): Cc1ccc2c(c1)C(N1CN(C(C)C)C(=O)c3c(O)c(=O)c(C(=O)O)cn31)c1cc(C)ccc1CC2
- EC50 (Junin virus [1]): 176 nM
- EC50 [2]: 100 nM

Structure (SMILES): CCN(CC)CCN1CN(C2c3ccccc3CCc3ccccc32)n2cc(C(=O)O)c(=O)c(O)c2C1=O
- EC50 (Junin virus [1]): > 1000 nM
- EC50 [2]: > 1000 nM

Structure (SMILES): CC(C)N1CN(Cc2ccccc2-c2ccccc2)n2cc(C(=O)O)c(=O)c(O)c2C1=O
- EC50 (Junin virus [1]): 437 nM
- EC50 [2]: 499 nM

Structure (SMILES): O=C(Nc1nnn[nH]1)c1cn2c(c(O)c1=O)C(=O)N(CC1CC1)CN2C1c2ccccc2CCc2ccccc21
- EC50 (Junin virus [1]): 404 nM
- EC50 [2]: 284 nM

Structure (SMILES): O=C(NO)c1cn2c(c(O)c1=O)C(=O)N(CC1CC1)CN2C1c2ccccc2CCc2ccccc21
- EC50 (Junin virus [1]): 120 nM
- EC50 [2]: 109 nM

Structure (SMILES): O=C(O)c1cn2c(c(O)c1=O)C(=O)N(CC1CCCC1)CN2C1c2ccccc2CCc2ccccc21
- EC50 (Junin virus [1]): 25 nM
- EC50 [2]: 17 nM

Structure (SMILES): Cc1cccc2c1CCc1c(C)cccc1C2N1CN(C(C)C)C(=O)c2c(O)c(=O)c(C(=O)O)cn21
- EC50 (Junin virus [1]): 3.1 nM
- EC50 [2]: 1.7 nM

Structure (SMILES): CCN1CN(C2c3ccccc3CCc3ccccc32)n2cc(C(=O)O)c(=O)c(O)c2C1=O
- EC50 (Junin virus [1]): 3.3 nM
- EC50 [2]: 6.2 nM

Structure (SMILES): CC(C)N1CN(C2c3ccccc3CCc3ccccc32)n2cc(C(=O)O)c(=O)c(O)c2C1=O
- Stability [3]: 81.8%
- Ratio EC50 (Junin virus [4]): 1000
- Stability [5]: 107%
- EC50 (Junin virus [1]): 2.4 nM
- EC50 [2]: 4.5 nM
- Ratio EC50 [6]: 1000
- AUC [7]: 0.928 µM·h
- half-life [8]: 2 h
- fraction unbound [9]: 0.00293
- bioavailability [10]: 10.1%

Structure (SMILES): CC(C)N1CN(C2c3ccccc3CSc3ccccc32)n2cc(C(=O)O)c(=O)c(O)c2C1=O (stereo not drawn)
- Ratio EC50 (Junin virus [4]): 1000
- EC50 (Junin virus [1]): 3.6 nM
- EC50 [2]: 8 nM
- Ratio EC50 [6]: 1000

Structure (SMILES): COC(=O)c1cn2c(c(O)c1=O)C(=O)N(CC1CC1)CN2C1c2ccccc2CCc2ccccc21
- EC50 (Junin virus [1]): 271 nM
- EC50 [2]: 305 nM

Structure (SMILES): O=C(O)c1cn2c(c(O)c1=O)C(=O)N(C1CC1)CN2C1c2ccccc2CCc2ccccc21
- EC50 (Junin virus [1]): 13.4 nM
- EC50 [2]: 7.8 nM

Structure (SMILES): O=C(O)c1cn2c(c(O)c1=O)C(=O)N(CC1CC1)CN2C1c2ccccc2CCc2ccccc21
- Stability [3]: 95.3%
- Stability [5]: 100%
- EC50 (Junin virus [1]): 5.8 nM
- EC50 [2]: 4.1 nM
- AUC [7]: 1.47 µM·h
- half-life [8]: 1.5 h
- fraction unbound [9]: 0.0136
- bioavailability [10]: 8.2%

Structure (SMILES): CN1CN(C2c3ccccc3CCc3ccccc32)n2cc(C(=O)O)c(=O)c(O)c2C1=O
- EC50 (Junin virus [1]): 9.2 nM
- EC50 [2]: 24 nM

Structure (SMILES): O=C(O)c1cn2c(c(O)c1=O)C(=O)N(CC1CCCCC1)CN2C1c2ccccc2CCc2ccccc21
- EC50 (Junin virus [1]): 20 nM
- EC50 [2]: 15 nM

Structure (SMILES): Cc1ccc2c(c1)CCc1cc(C)ccc1C2N1CN(C(C)C)C(=O)c2c(O)c(=O)c(C(=O)O)cn21
- EC50 (Junin virus [1]): 34 nM
- EC50 [2]: 13 nM

Structure (SMILES): O=C1c2c(O)c(=O)c(-c3noc(=O)[nH]3)cn2N(C2c3ccccc3CCc3ccccc32)CN1CC1CC1
- EC50 (Junin virus [1]): 189 nM
- EC50 [2]: 119 nM

Structure (SMILES): O=C1c2c(O)c(=O)c(-c3nnn[nH]3)cn2N(C2c3ccccc3CCc3ccccc32)CN1CC1CC1
- EC50 (Junin virus [1]): > 1000 nM
- EC50 [2]: 127 nM

Structure (SMILES): CC(C)N1CN(Cc2ccccc2)n2cc(C(=O)O)c(=O)c(O)c2C1=O
- EC50 (Junin virus [1]): > 1000 nM
- EC50 [2]: > 1000 nM

Structure (SMILES): NC(=O)c1ncn([C@@H]2O[C@H](CO)[C@@H](O)[C@H]2O)n1 [RIBAVIRIN]
- EC50 (Junin virus [1]): 2500 nM
- EC50 [2]: 3500 nM
